This note sets out measurements from patent US20240287154A1, “MC3R AGONIST PEPTIDES” (The Regents of the University of Michigan, priority 2021, published 2024).

The nature of data set [1]: in vitro. The procedure:
Pooled mouse plasma was prepared and stored at −80° C. prior to use. 396 μL mouse plasma was incubated at 37° C. for 5 minutes in 1.5 mL microcentrifuge tubes. 4 μL of 100 μM test or control compound/peptide was added to each tube and incubated for 0.5, 15, 30, 60, 120, or 240 minutes. An aliquot of 40 μL of each reaction was stopped by the addition of 4 volume of cold acetonitrile containing 200 ng/mL of Setmelanotide as an internal standard (IS). The incubation solution was centrifuged at 3500 rpm for 10 minutes to precipitate protein. The supernatant was used for LC/MS/MS analysis. The natural log peak area ratio (compound peak […] area/internal standard peak area) was plotted against time and the gradient of the line determined.

For data set [2], the target named is human MC4R (Homo sapiens, UniProt P32245). Briefly: Intracellular cAMP levels in live cells, MC3R selectivity relative to MC4R. The class given is cell-based. To be noted: cAMP assays in human MC3R and human MC4R stable cell lines. Background: cAMP levels reflect the balance of adenylyl cyclase and phosphodiesterase activity.
human MC4R, sequence (P32245 whole entry): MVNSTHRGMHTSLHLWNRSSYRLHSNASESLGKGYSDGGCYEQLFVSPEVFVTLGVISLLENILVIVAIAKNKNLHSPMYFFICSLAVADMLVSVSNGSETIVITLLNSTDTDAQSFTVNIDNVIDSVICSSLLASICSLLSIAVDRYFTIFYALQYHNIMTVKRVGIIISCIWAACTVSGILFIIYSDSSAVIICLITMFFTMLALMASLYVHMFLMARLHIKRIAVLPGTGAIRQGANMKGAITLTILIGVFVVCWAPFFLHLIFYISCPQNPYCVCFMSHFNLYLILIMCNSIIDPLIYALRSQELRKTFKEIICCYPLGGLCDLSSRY

Non-standard residues stand in square brackets, D forms with d. Residues, ends and D or L forms follow the SMILES beside them. Phe(4-Br) = N[C@@H](Cc1ccc(Br)cc1)C(=O)O; Phe(4-I) = N[C@@H](Cc1ccc(I)cc1)C(=O)O; NMeY = CN[C@@H](Cc1ccc(O)cc1)C(=O)O; Nle = CCCC[C@H](N)C(=O)O; dAbu = CC[C@@H](N)C(=O)O

`CCCC[C@H](NC(=O)[C@@H](NC(=O)[C@H](Cc1ccc(O)cc1)NC)C(C)C)C(=O)N[C@H](C)C(=O)N[C@@H](Cc1c[nH]cn1)C(=O)N[C@@H](Cc1ccccc1)C(=O)N[C@@H](CCCNC(=N)N)C(=O)N[C@H](Cc1c[nH]c2ccccc12)C(=O)N[C@@H](CC(=O)O)C(N)=O` [CTX-1141, NMe-Tyr-Val-Nle-D-Ala-His-Phe-Arg-D-Trp-Asp] (H-[NMeY]V[Nle][dA]HFR[dW]D-NH2): in data set [1] (mouse, plasma), the half-life (as a rule, how long it takes for the measured level to halve) at 1 µM was over 240 min; the amount remaining at 5 min, 1 µM was 106%; the share remaining at 0.25 h, 1 µM came out at 118%; the share remaining at 0.5 h, 1 µM was 95%. In data set [1] (mouse, plasma), the fraction remaining at 1 h, 1 µM amounted to 91.8%; the fraction remaining at 2 h, 1 µM is 108%; the amount remaining at 4 h, 1 µM stood at 63.9%. For the same compound, the Mouse Plasma Stability, time point 0 min in data set [1] (pooled mouse plasma, 37° C.) stood at 100%. Besides, the “MC3R selectivity (relative to MC4R)” value in data set [2] was found to be 55.

For the compound `CC(C)[C@H](NC(=O)[C@@H](N)Cc1ccc(O)cc1)C(=O)N[C@@H](CCC(=O)O)C(=O)NCC(=O)N[C@@H](Cc1c[nH]cn1)C(=O)N[C@@H](Cc1ccccc1)C(=O)N[C@@H](CCCNC(=N)N)C(=O)N[C@H](Cc1c[nH]c2ccccc12)C(=O)N[C@@H](CC(=O)O)C(=O)N[C@@H](CCCNC(=N)N)C(=O)N[C@@H](Cc1ccccc1)C(=O)NCC(N)=O` [CTX-1105, Tyr-Val-Glu-Gly-His-Phe-Arg-D-Trp-Asp-Arg-Phe-Gly] (H-YVEGHFR[dW]DRFG-NH2), in data set [1] (mouse, plasma), the half-life at 1 µM came to 2.38 min; the share remaining at 5 min, 1 µM stood at 23.4%; the fraction remaining at 0.25 h, 1 µM turned out to be 1.51%; the share remaining at 0.5 h, 1 µM is 0.3%. Besides, in data set [1] (mouse, plasma), the share remaining at 1 h, 1 µM was 0.27% and the fraction remaining at 2 h, 1 µM is 0.12%. This compound also came in with a Mouse Plasma Stability, time point 0 min in data set [1] (pooled mouse plasma, 37° C.) of 100%. For the same compound, the “MC3R selectivity (relative to MC4R)” value in data set [2] is reported as 500.

With `CCN(CC)CCNC(=O)c1ccc(N)cc1` [Procainamide, reference compound], in data set [1] (mouse, 1 µM), the “Mouse Plasma Stability, time point 0 min” value came to 100.00; the “Mouse Plasma Stability, time point 5 min” value came to 101.53; the “Mouse Plasma Stability, time point 15 min” value was 109.16; the “Mouse Plasma Stability, time point 30 min” value amounted to 103.05. For the same compound, the “Mouse Plasma Stability, time point 60 min” value in data set [1] (mouse, 1 µM) was 104.43. Moreover, the “Mouse Plasma Stability, time point 120 min” value in data set [1] (mouse, 120 min, 1 µM) came to 110.61. The “Mouse Plasma Stability, time point 240 min” value in data set [1] (mouse, 240 min, 1 µM) stood at 108.17.

Turning to `CCCC[C@H](NC(=O)[C@@H](NC(=O)[C@@H](N)Cc1ccc(O)cc1)C(C)C)C(=O)N[C@H](C)C(=O)N[C@@H](Cc1c[nH]cn1)C(=O)N[C@@H](Cc1ccc(Br)cc1)C(=O)N[C@@H](CCCNC(=N)N)C(=O)N[C@H](Cc1c[nH]c2ccccc12)C(=O)N[C@@H](CC(=O)O)C(=O)N[C@@H](CCCNC(=N)N)C(=O)N[C@@H](Cc1ccccc1)C(=O)NCC(=O)O` [CTX-2120, Tyr-Val-Nle-D-Ala-His-Phe(4-Br)-Arg-D-Trp-Asp-Arg-Phe-Gly] (H-YV[Nle][dA]H[Phe(4-Br)]R[dW]DRFG-OH), in data set [1] (mouse, plasma), the half-life at 1 µM was found to be 2.01 min; the share remaining at 5 min, 1 µM turned out to be 17.9%; the amount remaining at 0.25 h, 1 µM was 0.78%; the fraction remaining at 0.5 h, 1 µM was found to be 0.13%. The fraction remaining at 1 h, 1 µM in data set [1] (mouse, plasma) was 0.09%. This compound yielded a Mouse Plasma Stability, time point 0 min in data set [1] (pooled mouse plasma, 37° C.) of 100%. Also, the “MC3R selectivity (relative to MC4R)” value in data set [2] is 173.

Take `CCCC[C@H](NC(=O)[C@@H](NC(=O)[C@@H](N)Cc1ccc(O)cc1)C(C)C)C(=O)N[C@H](C)C(=O)N[C@@H](Cc1c[nH]cn1)C(=O)N[C@@H](Cc1ccccc1)C(=O)N[C@@H](CCCNC(=N)N)C(=O)N[C@H](Cc1c[nH]c2ccccc12)C(=O)N[C@@H](CC(=O)O)C(N)=O` [CTX-1108, Tyr-Val-Nle-D-Ala-His-Phe-Arg-D-Trp-Asp] (H-YV[Nle][dA]HFR[dW]D-NH2): in data set [1] (mouse, plasma), the half-life at 1 µM was determined as 1.32 min; the fraction remaining at 5 min, 1 µM amounted to 7.21%; the share remaining at 0.25 h, 1 µM came to 0.33%; the amount remaining at 0.5 h, 1 µM was found to be 0.04%. Besides, in data set [1] (mouse, plasma), the amount remaining at 1 h, 1 µM came out at 0.01%. In addition, the Mouse Plasma Stability, time point 0 min in data set [1] (pooled mouse plasma, 37° C.) is 100%. Besides, in data set [2], the “MC3R selectivity (relative to MC4R)” value came to 79.

Regarding `CCCC[C@H](NC(=O)[C@@H](NC(=O)[C@@H](N)Cc1ccc(O)cc1)C(C)C)C(=O)N[C@H](C)C(=O)N[C@@H](Cc1c[nH]cn1)C(=O)N[C@@H](Cc1ccccc1)C(=O)N[C@@H](CCCNC(=N)N)C(=O)N[C@H](Cc1c[nH]c2ccccc12)C(=O)N[C@@H](CC(=O)O)C(=O)N[C@@H](CCCNC(=N)N)C(=O)N[C@@H](Cc1ccccc1)C(=O)NCC(=O)O` [CTX-1103, Tyr-Val-Nle-D-Ala-His-Phe-Arg-D-Trp-Asp-Arg-Phe-Gly] (H-YV[Nle][dA]HFR[dW]DRFG-OH), in data set [1] (mouse, plasma), the half-life at 1 µM was determined as 1.46 min; the amount remaining at 5 min, 1 µM stood at 9.3%; the share remaining at 0.25 h, 1 µM was 0.21%; the fraction remaining at 0.5 h, 1 µM was found to be 0.03%. Moreover, in data set [1] (mouse, plasma), the fraction remaining at 1 h, 1 µM amounted to 0.02%. In data set [1] (pooled mouse plasma, 37° C.), this compound returned a Mouse Plasma Stability, time point 0 min of 100%. In addition, the “MC3R selectivity (relative to MC4R)” value in data set [2] is recorded as 229.

In data set [1] (mouse, pooled mouse plasma), `CCN(CC)CCOC(=O)c1ccc(N)cc1` [Procaine, reference compound] registered a half-life at 1 µM of 3.81 min. In data set [1] (pooled mouse plasma, 37° C.), this compound registered a Mouse Plasma Stability, time point 0 min of 100%; a Mouse Plasma Stability, time point 5 min of 40.3%; a Mouse Plasma Stability, time point 30 min of 2.15%; a Mouse Plasma Stability, time point 60 min of 0.44%. Besides, in data set [1] (pooled mouse plasma, 37° C., in % (unit assumed)), the “Mouse Plasma Stability, time point 15 min” value turned out to be 8.80.

For `CC[C@@H](NC(=O)[C@H](CCC(=O)O)NC(=O)[C@@H](NC(=O)[C@H](Cc1ccc(O)cc1)NC(C)=O)C(C)C)C(=O)N[C@@H](Cc1c[nH]cn1)C(=O)N[C@@H](Cc1ccc(I)cc1)C(=O)N[C@@H](CCCNC(=N)N)C(=O)N[C@H](Cc1c[nH]c2ccccc12)C(=O)N[C@@H](CC(=O)O)C(=O)N[C@@H](CCCNC(=N)N)C(=O)N[C@@H](Cc1ccccc1)C(=O)NCC(=O)O` [CTX-1194, Tyr-Val-Glu-D-Abu-His-Phe(4-I)-Arg-D-Trp-Asp-Arg-Phe-Gly] (Ac-YVE[dAbu]H[Phe(4-I)]R[dW]DRFG-OH), in data set [2], the “MC3R selectivity (relative to MC4R)” value is listed as 49.
